Converted amounts (≈) assume the structure as drawn. Where two headings read alike, the source gives them in different places.

The text below walks through data of patent publication US11261200B2, “Heteroaryltrifluoroborate compounds for the treatment of mycobacterial infections” (The Global Alliance for TB Drug Development, Inc., priority 2016, dated 2022).

Test [1] relates to M tb H37Rv. The test is described as follows: microbe, parasite or virus in culture. Format: cell-based, Mycobacterium tuberculosis. The note with it: pH 6.7.
For test [2], the system named is MtbH37Rv pncA-knock out strain. As to the kind of experiment: microbe, parasite or virus in culture. Format: cell-based, Mycobacterium tuberculosis. The note with it: for MIC: pH 5.2.
Test [3] concerns MtbH37Rv pncA-knock out strain. The test is described as follows: microbe, parasite or virus in culture. Particulars: pH 6.7. In kind it is cell-based, Mycobacterium tuberculosis.
The test system of the next test is Vero cells. The test is described as follows: Mammalian cell toxicity assay (CellTiter 96 Non-Radioactive Cell Proliferation Assay). In kind it is cell-based. Particulars: read-out: Vero cell IC50.
Test [4] concerns M tb H37Rv. The test is described as follows: microbe, parasite or virus in culture. In kind it is cell-based, Mycobacterium tuberculosis. Particulars: pH 5.2.
Another test concerns Mtb H37Rv-PH-GFP. Format: cell-based, Mycobacterium tuberculosis. Particulars: acidic medium (pH 5.2), FIG. 1-3.
In a further test the test system is Mtb. The note with it: standard culture conditions; cited from earlier work.
The mark [5] stands for this setting: Mycobacterium tuberculosis, H37RV, read-out: MIC 6.7 WT.
The mark [6] stands for this setting: Mycobacterium tuberculosis, read-out: MIC 5.2 KO.
[7] abbreviates: Mycobacterium tuberculosis, read-out: MIC 6.7 KO.
Where [8] appears, read: Chlorocebus sabaeus, Vero, 72 h.
[9] abbreviates: Mycobacterium tuberculosis, H37RV, read-out: MIC 5.2 WT.
The mark [10] stands for this setting: Chlorocebus sabaeus, Table 1, Vero cells, 72 hours.

For the compound `COc1cncc([B-](F)(F)F)n1.[K+]` [Compound 2-5, [trifluoro-(6-methoxypyrazin-2-yl)-boranyl]potassium(1+)], the MIC in the test on M tb H37Rv [1] (read-out: MIC6.7WT) is more than 200 µM; in test [2] (read-out: MIC5.2KO), 25 µM; in test [3] (read-out: MIC6.7KO), more than 200 µM; with M tb H37Rv [4] (read-out: MIC5.2WT), 50 µM. Moreover, the half-inhibitory concentration (IC50) in the test with Vero cells (Table 1, Vero cells, 72 hours) was more than 100 µM.

Regarding `Fc1cncc([B-](F)(F)F)c1.[K+]` [Compound 4-2, [trifluoro-(5-fluoro-3-pyridyl)-boranyl] potassium(1+)], the MIC in the test on M tb H37Rv [1] (read-out: MIC6.7WT) is reported as 200 µM; in test [2] (read-out: MIC5.2KO), 25 µM; in test [3] (read-out: MIC6.7KO), 100 µM; in the test with M tb H37Rv [4] (read-out: MIC5.2WT) it was 50 µM. In addition, in the test with Vero cells (Table 1, Vero cells, 72 hours), the IC50 is more than 100 µM.

In the case of `F[B-](F)(F)c1cncc(Cl)c1.[K+]` [Compound 5-2, [(5-chloro-3-pyridyl)-trifluoro-boranyl] potassium(1+)], the MIC turned out to be 100 µM in the test on M tb H37Rv [1] (read-out: MIC6.7WT), 50 µM in test [2] (read-out: MIC5.2KO), 100 µM in test [3] (read-out: MIC6.7KO) and 50 µM with M tb H37Rv [4] (read-out: MIC5.2WT). In addition, in the test with Vero cells (Table 1, Vero cells, 72 hours), the IC50 was more than 100 µM.

As to `FB(F)c1cncc(N2CCCC2)n1` [Compound 7-5, potassium; difluoro-(6-pyrrolidin-1-ylpyrazin-2-yl)borane; fluoride], the MIC in the test with M tb H37Rv [1] (setting [5]) was more than 200 µM; in test [2] (setting [6]) it was 50 µM; in test [3] (setting [7]), more than 200 µM; in the test on M tb H37Rv [4] (setting [9]) it was 100 µM. The concentration for half-maximal inhibition (IC50) in the test with Vero cells (setting [8]) is more than 100 µM.

With `N#Cc1cncc([B-](F)(F)F)c1` [Compound 11-2, potassium (5-cyanopyridin-3-yl)trifluoroborate], the MIC is more than 200 µM in the test with M tb H37Rv [1] (setting [5]), 100 µM in test [2] (setting [6]), more than 200 µM in test [3] (setting [7]) and 100 µM in the test on M tb H37Rv [4] (setting [9]). For the same compound, in the test with Vero cells (setting [8]), the IC50 is more than 100 µM.

Regarding `F[B-](F)(F)c1cncc(C(F)(F)F)c1` [Compound 12-3, [trifluoro-[5-(trifluoromethyl)-3-pyridyl]-boranyl]potassium(1+)], the MIC with M tb H37Rv [1] (setting [5]) was more than 200 µM; in test [2] (setting [6]) it was 100 µM; in test [3] (setting [7]), more than 200 µM; in the test with M tb H37Rv [4] (setting [9]), 100 µM. Further, the half-maximal inhibitory concentration (IC50) with Vero cells (setting [10]) is more than 100 µM.

As to `NNC(=O)c1ccncc1` [Isoniazid (INH), Isoniazid], the “change in internal pH of Mtb” value with Mtb H37Rv-PH-GFP is “does not have any effect on internal pH”.

On to `NC(=O)c1cnccn1` [Pyrazinamide (PZA), Pyrazinamide, reference compound], for which the MIC with M tb H37Rv [1] (setting [5]) is more than 400 µM; in the test on M tb H37Rv [1] (Mycobacterium tuberculosis, H37RV, read-out: MIC6.7WT), more than 400 µM; in the test on M tb H37Rv [1] (Mycobacterium tuberculosis, H37RV, read-out: MIC at pH 6.7), more than 400 µM; in test [2] (setting [6]), more than 400 µM; in test [2] (Mycobacterium tuberculosis, read-out: MIC5.2KO), more than 400 µM; in test [3] (setting [7]), more than 400 µM. Further, the MIC in test [3] (Mycobacterium tuberculosis, read-out: MIC6.7KO) was more than 400 µM; in the test on M tb H37Rv [4] (setting [9]) it was 100 µM (≈ 12.3 µg/mL); in the test with M tb H37Rv [4] (Mycobacterium tuberculosis, H37RV, read-out: MIC5.2WT) it was 100 µM (≈ 12.3 µg/mL); in the test with M tb H37Rv [4] (Mycobacterium tuberculosis, H37RV, read-out: MIC against Mtb at pH 5.2) it was 100 to 200 µM (≈ 12.3 to 24.6 µg/mL). Also, the “change in internal pH of Mtb” value in the test on Mtb H37Rv-PH-GFP was “lowering internal pH of Mtb”. Moreover, the “activity against pncA KO strain of Mtb” value in test [2] (result in words) is given as “not active against an Mtb strain whose pncA is knocked out”. The “minimum inhibitory concentration against Mtb” value with Mtb is more than 200 µM. Also, the IC50 was more than 100 µM in the test with Vero cells (setting [10]) and more than 100 µM in the test with Vero cells (Table 2, Vero cells, 72 hours).

A word on the IC50: it is the concentration that inhibits the measured activity by half.
